Data as given in ChEMBL document CHEMBL5465560, “Selectivity Literature for EUbOPEN Chemogenomic Library” (2024).
pIC50: −log10 of the molar value.

How the values were obtained:
[1] = molecular target: T1, Homeodomain-interacting protein kinase 2 (Homo sapiens, UniProt Q9H2X6); assay: Selectivity interaction (NanoBRET assay (using HEK293T cells)) EUB0000008b HIPK2; type: cell-based, HEK-293T
Target sequence in this assay (Q9H2X6 whole entry): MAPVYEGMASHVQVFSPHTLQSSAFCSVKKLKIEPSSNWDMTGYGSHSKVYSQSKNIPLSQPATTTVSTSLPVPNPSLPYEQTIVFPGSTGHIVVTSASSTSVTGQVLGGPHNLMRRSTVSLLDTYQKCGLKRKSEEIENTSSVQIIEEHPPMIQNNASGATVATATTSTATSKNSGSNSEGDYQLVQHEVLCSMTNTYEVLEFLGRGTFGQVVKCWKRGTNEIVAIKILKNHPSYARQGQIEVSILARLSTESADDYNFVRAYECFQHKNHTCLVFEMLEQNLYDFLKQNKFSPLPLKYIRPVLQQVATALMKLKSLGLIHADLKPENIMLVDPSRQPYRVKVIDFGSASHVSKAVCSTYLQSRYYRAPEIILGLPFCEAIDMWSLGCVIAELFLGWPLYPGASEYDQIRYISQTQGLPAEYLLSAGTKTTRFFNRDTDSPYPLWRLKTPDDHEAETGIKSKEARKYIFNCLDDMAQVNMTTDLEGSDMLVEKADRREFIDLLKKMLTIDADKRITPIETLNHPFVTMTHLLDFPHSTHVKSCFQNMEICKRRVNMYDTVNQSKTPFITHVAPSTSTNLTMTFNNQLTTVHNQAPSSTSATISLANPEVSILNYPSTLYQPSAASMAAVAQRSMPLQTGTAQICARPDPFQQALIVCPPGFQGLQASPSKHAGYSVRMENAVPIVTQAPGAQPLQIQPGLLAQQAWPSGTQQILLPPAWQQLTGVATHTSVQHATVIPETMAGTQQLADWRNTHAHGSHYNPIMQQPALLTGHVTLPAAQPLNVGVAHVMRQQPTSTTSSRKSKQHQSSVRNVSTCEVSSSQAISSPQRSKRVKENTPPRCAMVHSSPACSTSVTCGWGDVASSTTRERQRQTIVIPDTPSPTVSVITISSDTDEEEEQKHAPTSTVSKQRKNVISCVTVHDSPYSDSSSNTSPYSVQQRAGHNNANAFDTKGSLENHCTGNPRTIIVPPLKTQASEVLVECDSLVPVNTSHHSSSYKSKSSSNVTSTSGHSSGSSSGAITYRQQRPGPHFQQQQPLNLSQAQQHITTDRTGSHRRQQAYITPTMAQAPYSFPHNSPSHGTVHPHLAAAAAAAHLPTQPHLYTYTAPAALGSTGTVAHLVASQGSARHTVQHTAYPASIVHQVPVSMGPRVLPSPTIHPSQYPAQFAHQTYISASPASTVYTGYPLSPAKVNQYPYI

[2] = molecular target: T1, Homeodomain-interacting protein kinase 2; assay: Selectivity interaction (Eurofins kinase panel) EUB0000008b HIPK2; conditions: at 1 µM
Target sequence in this assay (Q9H2X6 whole entry, looked up): as the sequence (Q9H2X6 whole entry) above

[3] = molecular target: Homeodomain-interacting protein kinase 4 (Homo sapiens, UniProt Q8NE63); assay: Selectivity interaction (NanoBRET assay (using HEK293T cells)) EUB0000008b HIPK4; type: cell-based, HEK-293T
[4] = molecular target: Homeodomain-interacting protein kinase 3 (Homo sapiens, UniProt Q9H422); assay: Selectivity interaction (Eurofins kinase panel) EUB0000008b HIPK3; conditions: at 1 µM
[5] = molecular target: T1, Homeodomain-interacting protein kinase 2; assay: Selectivity interaction (Eurofins binding assay) EUB0000008b HIPK2
Target sequence in this assay (Q9H2X6 whole entry): as above

[6] = molecular target: Glycogen synthase kinase-3 alpha (Homo sapiens, UniProt P49840); assay: Selectivity interaction (Eurofins kinase panel) EUB0000008b GSK3A; conditions: at 1 µM
[7] = molecular target: Microtubule-associated serine/threonine-protein kinase 1 (Homo sapiens) (UniProt Q9Y2H9); assay: Selectivity interaction (KinomeScan (DiscoverX)) EUB0001877a MAST1; conditions: at 1 µM
Sequence of Microtubule-associated serine/threonine-protein kinase 1 (Homo sapiens) (Q9Y2H9 whole entry, looked up): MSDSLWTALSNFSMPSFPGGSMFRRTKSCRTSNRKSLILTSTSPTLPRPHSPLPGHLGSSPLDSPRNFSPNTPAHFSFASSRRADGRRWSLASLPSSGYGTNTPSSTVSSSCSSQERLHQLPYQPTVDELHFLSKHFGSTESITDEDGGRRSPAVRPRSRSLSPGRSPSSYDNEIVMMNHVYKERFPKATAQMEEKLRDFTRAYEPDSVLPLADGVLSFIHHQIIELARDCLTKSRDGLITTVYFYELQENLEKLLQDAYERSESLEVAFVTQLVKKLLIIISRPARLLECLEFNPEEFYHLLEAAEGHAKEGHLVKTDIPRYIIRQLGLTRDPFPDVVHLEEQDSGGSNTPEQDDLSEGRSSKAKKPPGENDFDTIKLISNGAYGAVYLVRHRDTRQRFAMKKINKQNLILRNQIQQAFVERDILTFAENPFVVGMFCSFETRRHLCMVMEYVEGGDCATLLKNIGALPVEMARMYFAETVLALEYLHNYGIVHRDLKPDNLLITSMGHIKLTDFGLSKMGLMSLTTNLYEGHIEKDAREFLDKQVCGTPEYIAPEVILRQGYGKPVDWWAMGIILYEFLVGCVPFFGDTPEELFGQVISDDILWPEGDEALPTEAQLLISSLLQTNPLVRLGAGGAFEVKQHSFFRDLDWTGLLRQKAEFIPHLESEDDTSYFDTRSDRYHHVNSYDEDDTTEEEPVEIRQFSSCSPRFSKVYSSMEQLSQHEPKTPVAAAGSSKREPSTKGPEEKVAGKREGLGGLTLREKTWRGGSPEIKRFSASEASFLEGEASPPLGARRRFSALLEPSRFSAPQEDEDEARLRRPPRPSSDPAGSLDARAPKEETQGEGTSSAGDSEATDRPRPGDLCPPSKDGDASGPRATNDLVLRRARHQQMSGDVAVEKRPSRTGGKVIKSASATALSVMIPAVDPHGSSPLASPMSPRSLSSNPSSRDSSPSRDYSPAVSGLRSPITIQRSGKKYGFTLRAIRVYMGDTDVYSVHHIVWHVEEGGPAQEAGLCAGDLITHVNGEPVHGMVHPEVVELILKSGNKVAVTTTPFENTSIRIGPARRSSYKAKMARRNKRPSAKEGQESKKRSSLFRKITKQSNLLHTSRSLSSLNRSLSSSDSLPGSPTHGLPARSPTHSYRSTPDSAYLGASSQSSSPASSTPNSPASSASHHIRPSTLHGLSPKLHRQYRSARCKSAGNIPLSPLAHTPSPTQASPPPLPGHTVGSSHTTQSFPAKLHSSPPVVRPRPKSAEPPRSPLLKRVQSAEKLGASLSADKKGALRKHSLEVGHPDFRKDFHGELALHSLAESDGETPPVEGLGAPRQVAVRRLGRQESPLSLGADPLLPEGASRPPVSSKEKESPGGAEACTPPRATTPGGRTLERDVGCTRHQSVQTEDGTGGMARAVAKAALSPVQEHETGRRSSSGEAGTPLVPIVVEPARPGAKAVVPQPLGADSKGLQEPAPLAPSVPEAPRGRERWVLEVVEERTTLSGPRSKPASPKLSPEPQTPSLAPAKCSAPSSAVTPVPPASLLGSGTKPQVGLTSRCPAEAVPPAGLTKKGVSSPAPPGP

Sequence of Glycogen synthase kinase-3 alpha (P49840 2-483 limits assumed): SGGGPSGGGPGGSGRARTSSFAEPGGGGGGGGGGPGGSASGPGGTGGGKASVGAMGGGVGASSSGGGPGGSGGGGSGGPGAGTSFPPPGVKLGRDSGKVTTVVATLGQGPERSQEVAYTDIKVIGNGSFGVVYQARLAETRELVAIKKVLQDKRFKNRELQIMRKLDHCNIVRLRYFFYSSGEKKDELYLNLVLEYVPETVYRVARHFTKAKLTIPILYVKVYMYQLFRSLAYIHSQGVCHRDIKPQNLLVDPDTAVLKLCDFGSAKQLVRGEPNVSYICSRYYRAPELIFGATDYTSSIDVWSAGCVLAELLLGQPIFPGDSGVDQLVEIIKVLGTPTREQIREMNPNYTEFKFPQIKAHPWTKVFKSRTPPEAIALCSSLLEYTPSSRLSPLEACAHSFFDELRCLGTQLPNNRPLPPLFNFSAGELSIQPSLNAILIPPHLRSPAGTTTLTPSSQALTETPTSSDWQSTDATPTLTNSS
Sequence of Homeodomain-interacting protein kinase 4 (Q8NE63 whole entry): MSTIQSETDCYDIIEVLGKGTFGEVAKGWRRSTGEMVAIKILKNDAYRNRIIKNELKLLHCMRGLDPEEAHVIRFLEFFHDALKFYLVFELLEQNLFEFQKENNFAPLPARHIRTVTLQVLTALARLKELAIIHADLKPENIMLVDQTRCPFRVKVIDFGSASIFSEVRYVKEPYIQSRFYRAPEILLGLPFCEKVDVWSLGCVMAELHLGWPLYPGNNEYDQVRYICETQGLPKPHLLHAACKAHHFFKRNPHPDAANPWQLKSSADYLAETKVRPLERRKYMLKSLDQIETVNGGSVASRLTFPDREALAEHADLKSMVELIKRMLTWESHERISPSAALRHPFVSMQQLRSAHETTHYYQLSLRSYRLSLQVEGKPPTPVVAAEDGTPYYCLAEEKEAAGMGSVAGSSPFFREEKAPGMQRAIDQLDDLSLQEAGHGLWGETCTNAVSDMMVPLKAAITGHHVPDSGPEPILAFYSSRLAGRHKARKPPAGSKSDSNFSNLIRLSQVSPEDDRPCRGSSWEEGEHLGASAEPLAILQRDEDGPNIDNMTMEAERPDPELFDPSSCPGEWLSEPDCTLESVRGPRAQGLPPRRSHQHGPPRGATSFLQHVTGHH

Row | pIC50 [1] | % of activity [2] [%] | pIC50 [3] | % of activity [4] [%] | pIC50 [5] | % of activity [6] [%] | % of control [7] [%] | Structure (SMILES)
1 | < 5.00 | 99 | 5.27 | 94 | 7.64 | 90 |  | Cn1cc(-c2ccc3occ(-c4cccc(-c5ccncc5)c4)c3n2)cn1
2 |  |  |  |  |  |  | 32 | Nc1ncc2c(n1)-c1c([nH]c3ccc(C4CC4)cc13)CCCC2
